From patent US8207175B2, “Inhibitor compounds” (University Court of the University of Dundee, priority 2005, dated 2012) come the findings set out here.

Like-named read-outs stand apart in the source and are kept apart here. Some results are limits rather than exact numbers.

In experiment [1] the target is T1, AfChiB1 (Aspergillus fumigatus, UniProt Q873X9). As to the kind of experiment: biochemical. Format: biochemical. The text has this: AfChiB1 was expressed, purified and inhibition studies performed as previously described [F. V. Rao, D. R. Houston, R. G. Boot, J. M. F. G. Aerts, M. Hodkinson, D. J. Adams, K. Shiomi, S. Omura, and D. M. F. van Aalten, Specificity and affinity of natural product cyclopentapeptide inhibitors against Aspergillus fumigatus, human and bacterial chitinases, Chemistry & Biology, 12, 65-76 (2005)].
Briefly, AfChiB1 was overexpressed as a GST-fusion protein in E. coli and purified using a combination of affinity and size-exclusion chromatography.
AfChiB1 inhibition was studied using the fluorogenic substrate 4-methylumbelliferyl-β-D-N,N′-diacetylchitobiose (4MU-GlcNAc2; Sigima). Briefly, in a final volume of 50 μl, 2 nM of enzyme was incubated with 20 μM substrate in McIlvain buffer (100 mM citric acid, 200 mM sodium phosphate, pH 5.5) containing 0.1 mg/ml BSA, for 10 min at 37° C. in the presence of different concentration of inhibitors. After the addition of 25 μl of 3 M glycine-NaOH, pH 10.3, the fluorescence of the liberated 4-methylumbelliferone (4MU) was quantified using a Flx 800 microtitrepiate fluorescence reader (Bio-Tek Instruments Inc.), with excitation and emission wavelengths of 360 nm and 460 nm, respectively, using 40 nm slits. Experiments were performed in triplicate. […]
The mode of action was determined by plotting the data as Lineweaver-Burk plots, and by fitting all data to the standard competitive inhibition equation with the GraFit software [R. J. Leatherbarrow, GraFit Version 5, Erithacus Software Ltd., Horley, U.K., (2001)].
The compounds according to an embodiment of the present invention were prepared according to the following methods, and further evaluated as inhibitors against AfChiB using the fluorescence-based assay described herein using 4methylumbelliferyl β-D-N,N-deacetyl-chitobioside as substrate. The assay results are shown in the accompanying tables 3-6.

The target in experiment [2] is cellulase from Aspergillus niger. The experiment in a line: Cellulase assay, 4-methylumbelliferyl-β-D-cellobioside. Format: biochemical. To be noted: 5 nM enzyme, 20 μM substrate, 30 min at 37° C. As for the experimental part:
(§1) Additionally, for comparison, inhibition studies were performed on celluase from Aspergillus niger, phosphodiesterase 4A and lysozyme.
Commercially available […] from Aspergillus niger (Sigma: C-1184) was assayed, using the fluorogenic substrate 4-methylumbelliferyl-β-D-cellobioside (Sigma M-6018). In a final volume of 50 μl, 5 nM of enzyme was incubated with 20 μM substrate in McIlvain buffer containing 0.1 mg/ml BSA, for 30 min at 37° C. in the presence of different concentration of inhibitors. After the addition of 25 μl of 3 M glycine-NaOH, pH 10.3, the fluorescence of the liberated 4-methylumbelliferone (4MU) was quantified using an Flx 800 microtitreplate fluorescence reader (Bio-Tek Instruments Inc.), with excitation and emission wavelengths of 360 nm and […], respectively, using 40 nm slits. Experiments were performed in triplicate. Production of 4MU was linear with time for the incubation period used, and less than 10% of available substrate was hydrolyzed.

Experiment [3] concerns the target T2, Chicken egg white lysozyme (Gallus gallus, UniProt P00698).
T2 construct: Chicken egg white lysozyme and its substrate; purchased Molecular probes EnzCheck Lysozyme kit; host or cells: chicken egg white
The experiment in a line: Lysozyme assay, EnzCheck Lysozyme kit. Format: biochemical. To be noted: 500 μM inhibitor. As for the experimental part:
as §1
Lysozyme was assayed using the EnzCheck Lysozyme kit from Molecular probes as described by the manufacturer. Chicken egg white lysozyme and its substrate, fluorescein labeled Micrococcus lysodeikyius cell wall (DQ Lysozyme substrate) were used to determine compound inhibition. Briefly, 6.25 units of lysozyme were incubated with 25 μg of DQ substrate with or without various concentrations of inhibitor in a total volume of 100 μl at 37° C. for 30 minutes. The fluorescence was determined using excitation and emission wavelengths of 360 nm and 460 nm, respectively. The potency of inhibitors (IC50) was determined from a dose-response curve. Experiments were performed in triplicate.

The next experiment has as its target H.AMCase (human AMCase) (Homo sapiens, UniProt Q9BZP6). As to the kind of experiment: Further inhibition studies, human AMCase (Table 2). Type of experiment: biochemical. The source says:
(§2) Inhibition Studies on Human and Mouse AMCase and Chitotriosidase

Another experiment addresses M.AMCase (mouse AMCase) (Mus musculus, UniProt Q91XA9). As to the kind of experiment: Further inhibition studies, mouse AMCase (Table 2). Type of experiment: biochemical.
Text: as §2

The target of experiment [4] is M.Chito (mouse chitotriosidase) (Mus musculus, UniProt Q9D7Q1). The experiment in a line: Further inhibition studies, mouse chitotriosidase (Table 2). Type of experiment: biochemical.
Text: as §2

The target of experiment [5] is T1, AfChiB1. The experiment in a line: AfChiB1 binding (Kd).
Another experiment deals with T3, human chitotriosidase (Homo sapiens, UniProt Q13231).
T3 construct: made in house; host or cells: HEK 293 (transient transfection, supernatant)
As to the kind of experiment: Human chitotriosidase inhibition, 4MU-GlcNAc2 chitinase assay. Type of experiment: biochemical. To be noted: 22 μM substrate, 1 nM enzyme, 30° C. for 30 minutes; read-out: hCHT IC50.

Another experiment deals with T4, human AMCase (Homo sapiens, UniProt Q9BZP6).
T4 construct: made in house; host or cells: HEK 293 (transient transfection, supernatant)
The experiment in a line: Human AMCase inhibition, 4MU-GlcNAc2 chitinase assay. As to conditions: 1 mM inhibitor. Type of experiment: biochemical.

The target in experiment [6] is H.Chito (human chitotriosidase) (Homo sapiens, UniProt Q13231). As to the kind of experiment: Further inhibition studies, human chitotriosidase (Table 2). Format: biochemical.
Text: as §2

For experiment [7], the target named is Phosphodiesterase 4A (PDE4A) (Homo sapiens, UniProt P27815). As to conditions: PDE-SPA assay, result in words.
Protocol: The assay reaction contained 100 nM [^3H]cAMP (1 μCi/ml) in a buffer containing 20 mM HEPES (pH 7.5), 10 mM MgCl2, 100 mM EDTA, 100 mM KCl and 2 μl of test compound in DMSO at 30° C. The reaction was initiated by addition of enzyme for 10 min. The potency of inhibitors (IC50) was determined from a dose-response curve. Experiments were performed with n=6.
Where [8] appears, read: Table 6, N7 compounds, against AfChiB, read-out: IC50.
Setting [9] is: 2 nM enzyme, 20 μM substrate, pH 5.5, 10 min at 37° C., read-out: AfChiB1 IC50.
Where [10] appears, read: Trio substrate, pH 5.2, read-out: H.Chito Trio pH 5.2 (IC50).
[11] abbreviates: human AMCase, Bio substrate, pH 4.5, read-out: H.AMCase Bio pH 4.5 (IC50).
The mark [12] stands for this setting: mouse AMCase, Bio substrate, pH 4.5, read-out: M.AMCase Bio pH 4.5 (IC50).
The mark [13] stands for this setting: mouse chitotriosidase, Bio substrate, pH 5.2, read-out: M.Chito Bio pH 5.2 (IC50).
[14] abbreviates: Table 5, N3 compounds, against AfChiB, read-out: IC50.

Chain of M.Chito (mouse chitotriosidase) (Q9D7Q1 22-464): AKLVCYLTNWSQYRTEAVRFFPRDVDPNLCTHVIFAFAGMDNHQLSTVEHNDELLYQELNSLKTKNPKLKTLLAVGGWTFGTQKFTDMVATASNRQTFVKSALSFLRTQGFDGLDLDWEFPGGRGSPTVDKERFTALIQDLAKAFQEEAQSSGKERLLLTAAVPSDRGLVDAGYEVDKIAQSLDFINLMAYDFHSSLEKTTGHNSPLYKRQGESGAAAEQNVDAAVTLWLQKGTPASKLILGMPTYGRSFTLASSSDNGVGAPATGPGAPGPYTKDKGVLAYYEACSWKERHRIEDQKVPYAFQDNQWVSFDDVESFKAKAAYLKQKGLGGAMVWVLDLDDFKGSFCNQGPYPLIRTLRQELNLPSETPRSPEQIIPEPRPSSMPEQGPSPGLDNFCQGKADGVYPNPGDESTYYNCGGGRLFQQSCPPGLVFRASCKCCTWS
Chain of H.Chito (human chitotriosidase) (Q13231 22-466): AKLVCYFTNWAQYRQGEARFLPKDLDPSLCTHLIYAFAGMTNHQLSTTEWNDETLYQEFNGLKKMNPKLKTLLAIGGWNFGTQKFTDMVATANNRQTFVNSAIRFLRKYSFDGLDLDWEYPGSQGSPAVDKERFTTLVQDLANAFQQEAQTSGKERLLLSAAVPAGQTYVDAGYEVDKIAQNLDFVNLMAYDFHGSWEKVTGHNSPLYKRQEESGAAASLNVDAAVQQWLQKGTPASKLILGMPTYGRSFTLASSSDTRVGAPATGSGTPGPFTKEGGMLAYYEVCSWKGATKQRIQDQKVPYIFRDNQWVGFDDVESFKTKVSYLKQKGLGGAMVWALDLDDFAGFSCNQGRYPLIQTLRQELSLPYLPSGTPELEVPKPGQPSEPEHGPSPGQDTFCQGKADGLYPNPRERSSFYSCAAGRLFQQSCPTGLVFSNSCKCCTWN
Chain of H.AMCase (human AMCase) (Q9BZP6 22-476): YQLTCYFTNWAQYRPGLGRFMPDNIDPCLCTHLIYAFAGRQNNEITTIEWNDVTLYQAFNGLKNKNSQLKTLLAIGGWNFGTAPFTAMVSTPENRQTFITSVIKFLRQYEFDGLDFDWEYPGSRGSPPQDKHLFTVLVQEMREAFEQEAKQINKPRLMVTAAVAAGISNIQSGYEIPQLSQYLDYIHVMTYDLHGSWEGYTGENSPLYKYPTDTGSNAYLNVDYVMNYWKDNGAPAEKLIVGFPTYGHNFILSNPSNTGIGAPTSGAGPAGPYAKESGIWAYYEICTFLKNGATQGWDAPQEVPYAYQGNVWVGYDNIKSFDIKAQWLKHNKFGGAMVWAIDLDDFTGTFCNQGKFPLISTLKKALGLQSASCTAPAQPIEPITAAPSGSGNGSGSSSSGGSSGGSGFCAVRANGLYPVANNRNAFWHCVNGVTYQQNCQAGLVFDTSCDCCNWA
Chain of M.AMCase (mouse AMCase) (Q91XA9 22-473): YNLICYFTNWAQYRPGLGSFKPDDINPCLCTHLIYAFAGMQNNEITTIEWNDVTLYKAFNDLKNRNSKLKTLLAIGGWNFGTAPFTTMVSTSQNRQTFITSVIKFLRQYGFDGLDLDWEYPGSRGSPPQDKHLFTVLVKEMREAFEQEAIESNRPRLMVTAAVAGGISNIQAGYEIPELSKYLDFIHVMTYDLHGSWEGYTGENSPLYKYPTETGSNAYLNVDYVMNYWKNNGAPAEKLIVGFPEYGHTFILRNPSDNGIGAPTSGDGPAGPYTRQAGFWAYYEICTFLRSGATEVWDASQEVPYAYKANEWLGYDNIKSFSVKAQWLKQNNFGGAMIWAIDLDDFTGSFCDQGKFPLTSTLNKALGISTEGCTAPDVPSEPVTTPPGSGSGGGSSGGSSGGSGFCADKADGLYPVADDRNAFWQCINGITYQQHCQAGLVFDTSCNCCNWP
T2 sequence (P00698 19-147): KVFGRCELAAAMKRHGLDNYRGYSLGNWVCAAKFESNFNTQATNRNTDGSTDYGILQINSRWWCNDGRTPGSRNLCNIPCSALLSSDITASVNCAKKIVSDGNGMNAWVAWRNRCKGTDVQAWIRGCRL
T3 sequence (Q13231 22-466): as the sequence (Q13231 22-466) above
T4 sequence (Q9BZP6 22-476): as the sequence (Q9BZP6 22-476) above
Chain of Phosphodiesterase 4A (PDE4A) (P27815 whole entry): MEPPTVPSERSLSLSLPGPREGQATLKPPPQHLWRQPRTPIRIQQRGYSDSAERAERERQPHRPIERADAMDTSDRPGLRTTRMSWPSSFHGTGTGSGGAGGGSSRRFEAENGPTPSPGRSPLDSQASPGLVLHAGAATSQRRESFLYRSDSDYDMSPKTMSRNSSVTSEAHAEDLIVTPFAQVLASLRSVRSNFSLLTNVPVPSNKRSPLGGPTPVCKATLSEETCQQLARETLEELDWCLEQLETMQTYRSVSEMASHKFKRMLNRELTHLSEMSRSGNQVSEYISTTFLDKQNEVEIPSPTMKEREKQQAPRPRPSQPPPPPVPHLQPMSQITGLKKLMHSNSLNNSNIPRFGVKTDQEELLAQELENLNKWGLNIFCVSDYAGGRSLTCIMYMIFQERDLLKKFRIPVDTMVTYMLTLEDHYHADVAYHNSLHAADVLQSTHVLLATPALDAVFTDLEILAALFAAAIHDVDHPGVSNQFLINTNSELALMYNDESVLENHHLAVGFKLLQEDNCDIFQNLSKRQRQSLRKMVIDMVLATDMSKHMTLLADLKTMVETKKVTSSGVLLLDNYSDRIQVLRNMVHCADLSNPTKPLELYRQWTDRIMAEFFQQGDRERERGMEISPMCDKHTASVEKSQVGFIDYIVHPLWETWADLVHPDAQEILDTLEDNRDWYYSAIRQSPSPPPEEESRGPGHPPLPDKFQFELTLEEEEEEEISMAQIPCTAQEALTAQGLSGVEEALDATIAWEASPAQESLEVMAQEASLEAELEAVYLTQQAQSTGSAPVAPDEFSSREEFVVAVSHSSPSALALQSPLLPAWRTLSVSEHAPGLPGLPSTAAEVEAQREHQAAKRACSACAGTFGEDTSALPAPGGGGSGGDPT

As usually defined, the IC50 is the concentration needed to halve the response being measured. Consider `Cn1cnc2c1c(=O)n(CCCn1c(=O)c3c(ncn3CC=CC(=O)O)n(C)c1=O)c(=O)n2C` [Compound 25], for which, at AfChiB1 [1] (setting [8]), the IC50 is 0.42 µM.

Take `Cn1cnc2c1c(=O)n(CCCn1c(=O)c3c(ncn3CCCC(=O)O)n(C)c1=O)c(=O)n2C` [Compound 21]: the IC50 on AfChiB1 [1] (setting [8]) came out at 0.2 µM.

For the compound `Cn1cnc2c1c(=O)n(CCCn1c(=O)c3c(ncn3C)n(C)c1=O)c(=O)n2C` [Compound 2], the IC50 at AfChiB1 [1] came to 0.23 µM.

Turning to `Cn1cnc2c1c(=O)n(CCCn1c(=O)c3nc[nH]c3n(C)c1=O)c(=O)n2C` [Compound 17], the IC50 on AfChiB1 [1] (setting [8]) was 0.2 µM.

As to `Cn1cnc2c1c(=O)n(CCCn1c(=O)c3c(ncn3CCC(=O)O)n(C)c1=O)c(=O)n2C` [Compound 19], on AfChiB1 [1] (setting [8]), the IC50 was 0.16 µM.

Turning to `Cn1cnc2c1c(=O)n(CCCn1c(=O)c3c(ncn3CCCCC(=O)O)n(C)c1=O)c(=O)n2C` [Compound 23], the IC50 on AfChiB1 [1] (setting [8]) came out at 0.36 µM.

As to `Cn1c(=O)c2[nH]cnc2n(C)c1=O` [theophylline], the half-inhibitory concentration (IC50) at AfChiB1 [1] (setting [9]) was 1500 µM; in experiment [2], 1010 ± 159 µM; against H.AMCase (human AMCase), ~2000 µM; at M.AMCase (mouse AMCase), ~1600 µM; in experiment [4], > 2000 µM. In [3], the “Egg white lysozyme activity at 500 μM” value is 100%.

The term Ki denotes the equilibrium dissociation constant of an inhibitor or competing ligand from its target. By Kd is commonly meant a measure of binding affinity in units of concentration. The low end stands for tighter binding, the high end for weaker binding. For `CC(=O)CCCCn1c(=O)c2c(ncn2C)n(C)c1=O` [pentoxifylline], the half-inhibitory concentration (IC50) is 126 µM on AfChiB1 [1] (setting [9]); 98 µM on human chitotriosidase; 881 ± 319 µM in [2]; 400 µM in experiment [6] (setting [10]); 400 µM on H.AMCase (human AMCase) (setting [11]); 400 µM on M.AMCase (mouse AMCase) (setting [12]). Besides, in experiment [4] (setting [13]), the IC50 was ~1000 µM. Also, the Ki on AfChiB1 [1] (competitive inhibitor, 5-30 μM substrate, fit to competitive inhibition equation) came out at 37 µM. In addition, the affinity at AfChiB1 [5], expressed as Kd, was 43 ± 10 µM. For the same compound, the “hAMCase activity at 1 mM” value on human AMCase was 49%. Moreover, the “Egg white lysozyme activity at 500 μM” value in [3] was 100%. In experiment [7], the “inhibition of human phosphodiesterase-4” value is on record as “barely detectable”.

Regarding `COC(=O)C=CCn1cnc2c1c(=O)n(CCCn1c(=O)c3c(ncn3C)n(C)c1=O)c(=O)n2C` [Compound 24], at AfChiB1 [1] (setting [8]), the IC50 is 0.16 µM.

Consider `Cn1cnc2c1c(=O)n(CCn1c(=O)c3c(ncn3C)n(C)c1=O)c(=O)n2C` [Compound 1], for which the half-maximal inhibitory concentration (IC50) on AfChiB1 [1] was found to be 6 µM.

Take `Cn1cnc2[nH]c(=O)n(CCCn3c(=O)c4c(ncn4C)n(C)c3=O)c(=O)c21` [Compound 9]: on AfChiB1 [1] (setting [14]), the IC50 was 0.086 µM.

Turning to `COC(=O)CCCn1cnc2c1c(=O)n(CCCn1c(=O)c3c(ncn3C)n(C)c1=O)c(=O)n2C` [Compound 20], the IC50 at AfChiB1 [1] (setting [8]) turned out to be 0.14 µM.

Consider `Cn1cnc2c1c(=O)n(CCCn1c(=O)c3c(ncn3C)n(CCCN)c1=O)c(=O)n2C` [Compound 15], for which the IC50 at AfChiB1 [1] (setting [14]) stood at 0.44 µM.

In the case of `CC(C)n1c(=O)n(CCCn2c(=O)c3c(ncn3C)n(C)c2=O)c(=O)c2c1ncn2C` [Compound 12], the IC50 on AfChiB1 [1] (setting [14]) was found to be 0.52 µM.

For `Cn1c(=O)c2c(ncn2C)n(C)c1=O` [caffeine], the IC50 at human chitotriosidase came to 257 ± 8 µM; in experiment [2], 1250 ± 278 µM; in experiment [6] (H.Chito Bio pH 5.2 (IC50), Bio substrate) it was 650 µM; in [6] (setting [10]) it was 850 µM; on H.AMCase (human AMCase) (setting [11]) it was 500 µM; on M.AMCase (mouse AMCase) (setting [12]), 800 µM. The half-inhibitory concentration (IC50) in experiment [4] (setting [13]) was > 1000 µM. Besides, the “hAMCase activity at 1 mM” value at human AMCase came to 36%. Also, the “Egg white lysozyme activity at 500 μM” value in [3] came to 100%.

`C=CCn1c(=O)n(CCCn2c(=O)c3c(ncn3C)n(C)c2=O)c(=O)c2c1ncn2C` [Compound 11]: at AfChiB1 [1] (setting [14]), the IC50 is 0.14 µM.

For the compound `COC(=O)CCCCn1cnc2c1c(=O)n(CCCn1c(=O)c3c(ncn3C)n(C)c1=O)c(=O)n2C` [Compound 22], at AfChiB1 [1] (setting [8]), the half-maximal inhibitory concentration (IC50) turned out to be 0.3 µM.

As for `Cn1cnc2c1c(=O)n(CCCCn1c(=O)c3c(ncn3C)n(C)c1=O)c(=O)n2C` [Compound 3], the IC50 on AfChiB1 [1] came to 6 µM.

As to `CCn1c(=O)n(CCCn2c(=O)c3c(ncn3C)n(C)c2=O)c(=O)c2c1ncn2C` [Compound 10], the IC50 on AfChiB1 [1] (setting [14]) was 0.31 µM.

For the compound `Cn1cnc2c1c(=O)n(CCCn1c(=O)c3c(ncn3C)n(CCCO)c1=O)c(=O)n2C` [Compound 16], the IC50 at AfChiB1 [1] (setting [14]) worked out at 0.44 µM.

On to `Cn1cnc2c1c(=O)n(CCCn1c(=O)c3c(ncn3C)n(CCO)c1=O)c(=O)n2C` [Compound 14], for which the IC50 at AfChiB1 [1] (setting [14]) stood at 0.18 µM.

`Cn1cnc2c1c(=O)n(CCCn1c(=O)c3c(ncn3C)n(CCN)c1=O)c(=O)n2C` [Compound 13]: the IC50 at AfChiB1 [1] (setting [14]) amounted to 0.078 µM.
